Measured values published in patent US20250145600A1, “2-((4-((S)-2-(4-CHLORO-2-FLUOROPHENYL)-2-METHYLBENZO[D][1,3]DIOXOL-4-YL)PIPERIDIN-1-YL)METHYL)-1-(((S)-OXETAN-2-YL)METHYL)-1H-IMIDAZOLE DERIVATIVES AS ACTIVATORS OF THE GLP1 RECEPTOR FOR THE TREATMENT OF OBESITY” (Novartis AG, priority 2022, published 2025).

Molecular target: human GLP1R (hGLP1R) (Homo sapiens, UniProt P43220)
Assay: Human GLP1R cAMP agonist assay (GloSensor cAMP Assay)
Type: cell-based
Settings: HEK293-SNAP-hGLP1R-GloSensor cells; for Emax: cAMP activity as percent of GLP1 (7-36) EC100 control; for EC50: intracellular cAMP, 12 min at rt
Experimental: Compounds of formula (I) according to the invention were tested in the following cellular assays that measure the intracellular cAMP concentration, beta-arrestin recruitment and receptor internalization. The cAMP is generated by the activation of GLP1R. The extent to which the GLP1R is internalized into the cell and away from the plasma membrane following activation is also shown in Table 2. EC50 for each assay is defined as the concentration of the compound that leads to half of the maximum response (after baseline correction). Emax is defined as the maximum response observed for the test compound, normalized to the maximum response observed for the endogenous ligand (GLP1(7-36)) to GLP1R.
Human GLP1R cAMP Agonist Assay
The agonist activity of compounds was determined using the GloSensor™ cAMP Assay (Promega Corp.), which measures changes in the intracellular concentration of cAMP after ligand activation of GPCRs. The assay uses a biosensor encoded by pGloSensor™-22F cAMP plasmid (Promega, cat #E2301) with cAMP binding domains fused to a mutant form of Photinus pyralis luciferase. Binding to cAMP causes conformational changes that promote large increases in light output, which can be measured by a luminescence detector. HEK293-SNAP-hGLP1R-GloSensor cells stably overexpressing the human GLP1 receptor (hGLP1R) and pGloSensor™-22F were seeded in white 384-well poly-D-Lysine coated plates (Greiner Bio One, cat #781945) in CO2-independent media (Gibco cat #18045-088 with 1.0% FBS, 2 mM L-glutamine, penicillin and streptomycin) and incubated overnight at 37° C., 5% CO2 with humidity. The assay was started the following morning by adding an equal volume of CO2-independent media containing 4% v/v dilution of the GloSensor substrate (Promega, cat #E1291) to all wells. The cell plate was incubated at rt for 2 h in the dark. The Biomek 7 (Beckman Coulter) instrument was used for the liquid handling steps. To generate duplicate dose response curves, 3-fold serially diluted compounds were added in to the cell assay plate to a final volume of 60 μL with final concentrations ranging from 30 μM through 0.06 μM in CO2-independent media containing 0.1% BSA, 0.5 mM IBMX and 0.4% DMSO. In the same plate and assay buffer as the tested compounds, were EC100 control wells containing GLP1 (7-36) peptide (Bachem, cat #H-6795) at a final concentration of 2 nM and also EC0 control wells containing no peptide. This plate was incubated at rt in the dark for 12 min after adding the compounds to the cells. Luminescence was then measured with an Envision 2104 Multilabel reader with “TRF Light Unit, 337 nm” (PerkinElmer) using the Ultra-Sensitive protocol setting “384-well US luminescence detector” with the 384-well luminescence aperture, 0.1 seconds per well. cAMP activity was calculated as percent of the GLP1 (7-36) EC100 control wells: [(sample signal−mean EC0 signal)/(mean EC100 of GLP1 (7-36) signal−mean EC0 signal)}*100. Curve fitting for EC50 determinations was performed in the Helios module of the software package DAVID. The 4-parameter logistic model, Hill slope was used: y=Ainf+(A0−Ainf)/(1+(x/AC50)^Hill Slope) where y is the functional response; x is the compound concentration; A0 is the minimum value (at 0 dose); Ainf is the maximum value (at infinite dose); AC50 corresponds to the point of inflection (i.e. the point on the sigmoid shaped curve halfway between A0 and Ainf). The EC50 value was represented by the AC50 value calculated from Helios in μM. Emax is the maximal activity detected within the concentration range, derived from the fitted curve.
327 μL of Opti-MEM medium (Gibco, cat #31985-062) were mixed with 12 μL of FuGENE® HD (Promega, cat #E2311) and incubated at rt for 5 min. Then 8.2 μL (4 μg, 0.485 μg/μL solution) of pSNAP-hGLP1R plasmid (Cisbio, cat #PSNAP-GLP1) encoding human GLP1R (NCBI Reference Sequence: NM_002062.3) fused with Cisbio's SNAP tag was added in to the Fugene HD/Opti-MEM mix, and incubated at rt for 20 min. […]

Chain of human GLP1R (hGLP1R) (P43220 24-463): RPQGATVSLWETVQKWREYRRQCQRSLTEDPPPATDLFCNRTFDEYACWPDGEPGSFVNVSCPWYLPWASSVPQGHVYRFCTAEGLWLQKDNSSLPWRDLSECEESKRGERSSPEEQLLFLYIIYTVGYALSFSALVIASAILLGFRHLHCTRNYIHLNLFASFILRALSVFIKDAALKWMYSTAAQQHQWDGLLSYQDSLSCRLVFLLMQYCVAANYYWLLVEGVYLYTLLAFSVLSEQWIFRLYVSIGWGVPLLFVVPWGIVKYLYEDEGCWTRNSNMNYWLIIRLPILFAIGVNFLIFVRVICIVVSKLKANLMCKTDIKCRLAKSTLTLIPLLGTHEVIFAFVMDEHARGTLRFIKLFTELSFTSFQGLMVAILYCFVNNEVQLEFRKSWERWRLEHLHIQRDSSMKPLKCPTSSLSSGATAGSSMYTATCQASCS

| Structure (SMILES) | Emax [%] | EC50 [pM] |
| --- | --- | --- |
| Cc1nc(CN2CCC(c3cccc4c3O[C@@](C)(c3ccc(Cl)cc3F)O4)CC2)n(C[C@@H]2CCO2)c1-c1nc(C(=O)O)c(C)o1 [Compound C-1, 2-(2-((4-((S)-2-(4-chloro-2-fluorophenyl)-2-methylbenzo[d][1,3]dioxol-4-yl)piperidin-1-yl)methyl)-4-methyl-1-(((S)-oxetan-2-yl)methyl)-1H-imidazol-5-yl)-5-methyloxazole-4-carboxylic acid] | 110 | 56 |
| C[C@]1(c2ccc(Cl)cc2F)Oc2cccc(C3CCN(Cc4nc(C(F)(F)F)c(-c5nc(C(=O)O)co5)n4C[C@@H]4CCO4)CC3)c2O1 [Compound C-4, 2-(2-((4-((S)-2-(4-chloro-2-fluorophenyl)-2-methylbenzo[d][1,3]dioxol-4-yl)piperidin-1-yl)methyl)-1-(((S)-oxetan-2-yl)methyl)-4-(trifluoromethyl)-1H-imidazol-5-yl)oxazole-4-carboxylic acid] | 120 | 298 |
| CCc1nc(CN2CCC(c3cccc4c3O[C@@](C)(c3ccc(Cl)cc3F)O4)CC2)n(C[C@@H]2CCO2)c1-c1nc(C(=O)O)co1 [Compound C-5, 2-(2-((4-((S)-2-(4-chloro-2-fluorophenyl)-2-methylbenzo[d][1,3]dioxol-4-yl)piperidin-1-yl)methyl)-4-ethyl-1-(((S)-oxetan-2-yl)methyl)-1H-imidazol-5-yl)oxazole-4-carboxylic acid] | 123 | 41.8 |
| CCc1nc(CN2CCC(c3cccc4c3O[C@@](C)(c3ccc(Cl)cc3F)O4)CC2)n(C[C@H]2CCO2)c1-c1nc(C(=O)O)co1 [Compound C-7, 2-(2-((4-((S)-2-(4-chloro-2-fluorophenyl)-2-methylbenzo[d][1,3]dioxol-4-yl)piperidin-1-yl)methyl)-4-ethyl-1-(((R)-oxetan-2-yl)methyl)-1H-imidazol-5-yl)oxazole-4-carboxylic acid] | 118 | 35.1 |
| Cc1nc(CN2CCC(c3cccc4c3O[C@@](C)(c3ccc(Cl)cc3F)O4)CC2)n(C[C@@H]2CCO2)c1-c1nc(C(=O)O)co1 [Compound C-9, 2-(2-((4-((S)-2-(4-chloro-2-fluorophenyl)-2-methylbenzo[d][1,3]dioxol-4-yl)piperidin-1-yl)methyl)-4-methyl-1-(((S)-oxetan-2-yl)methyl)-1H-imidazol-5-yl)oxazole-4-carboxylic acid] | 107 | 103 |
| CCc1oc(-c2c(C)nc(CN3CCC(c4cccc5c4O[C@@](C)(c4ccc(Cl)cc4F)O5)CC3)n2C[C@@H]2CCO2)nc1C(=O)O [Compound C-10, 2-(2-((4-((S)-2-(4-chloro-2-fluorophenyl)-2-methylbenzo[d][1,3]dioxol-4-yl)piperidin-1-yl)methyl)-4-methyl-1-(((S)-oxetan-2-yl)methyl)-1H-imidazol-5-yl)-5-ethyloxazole-4-carboxylic acid] | 108 | 142 |
| Cc1oc(-c2nc(CN3CCC(c4cccc5c4O[C@@](C)(c4ccc(Cl)cc4F)O5)CC3)n(C[C@@H]3CCO3)c2C)nc1C(=O)O [Compound C-12, 2-(2-((4-((S)-2-(4-chloro-2-fluorophenyl)-2-methylbenzo[d][1,3]dioxol-4-yl)piperidin-1-yl)methyl)-5-methyl-1-(((S)-oxetan-2-yl)methyl)-1H-imidazol-4-yl)-5-methyloxazole-4-carboxylic acid] | 114 | 575 |
| Cc1c(-c2nc(C(=O)O)co2)nc(CN2CCC(c3cccc4c3O[C@@](C)(c3ccc(Cl)cc3F)O4)CC2)n1C[C@@H]1CCO1 [Compound C-13, 2-(2-((4-((S)-2-(4-chloro-2-fluorophenyl)-2-methylbenzo[d][1,3]dioxol-4-yl)piperidin-1-yl)methyl)-5-methyl-1-(((S)-oxetan-2-yl)methyl)-1H-imidazol-4-yl)oxazole-4-carboxylic acid] | 102 | 376 |
| Cc1c(-c2nc(C(F)(F)F)c(C(=O)O)o2)nc(CN2CCC(c3cccc4c3O[C@@](C)(c3ccc(Cl)cc3F)O4)CC2)n1C[C@@H]1CCO1 [Compound C-14, 2-(2-((4-((S)-2-(4-chloro-2-fluorophenyl)-2-methylbenzo[d][1,3]dioxol-4-yl)piperidin-1-yl)methyl)-5-methyl-1-(((S)-oxetan-2-yl)methyl)-1H-imidazol-4-yl)-4-(trifluoromethyl)oxazole-5-carboxylic acid] | 104 | 492 |
| Cc1c(-c2cnc(C(=O)O)o2)nc(CN2CCC(c3cccc4c3O[C@@](C)(c3ccc(Cl)cc3F)O4)CC2)n1C[C@@H]1CCO1 [Compound C-16, 5-(2-((4-((S)-2-(4-chloro-2-fluorophenyl)-2-methylbenzo[d][1,3]dioxol-4-yl)piperidin-1-yl)methyl)-5-methyl-1-(((S)-oxetan-2-yl)methyl)-1H-imidazol-4-yl)oxazole-2-carboxylic acid] | 108 | 171 |
| Cc1c(-c2cc(C(=O)O)n(C)n2)nc(CN2CCC(c3cccc4c3O[C@@](C)(c3ccc(Cl)cc3F)O4)CC2)n1C[C@@H]1CCO1 [Compound C-17, 3-(2-((4-((S)-2-(4-chloro-2-fluorophenyl)-2-methylbenzo[d][1,3]dioxol-4-yl)piperidin-1-yl)methyl)-5-methyl-1-(((S)-oxetan-2-yl)methyl)-1H-imidazol-4-yl)-1-methyl-1H-pyrazole-5-carboxylic acid] | 113 | 754 |
| Cc1c(-c2coc(C(=O)O)n2)nc(CN2CCC(c3cccc4c3O[C@@](C)(c3ccc(Cl)cc3F)O4)CC2)n1C[C@@H]1CCO1 [Compound C-18, 4-(2-((4-((S)-2-(4-chloro-2-fluorophenyl)-2-methylbenzo[d][1,3]dioxol-4-yl)piperidin-1-yl)methyl)-5-methyl-1-(((S)-oxetan-2-yl)methyl)-1H-imidazol-4-yl)oxazole-2-carboxylic acid] | 115 | 188 |
| Cc1cc(-c2nc(CN3CCC(c4cccc5c4O[C@@](C)(c4ccc(Cl)cc4F)O5)CC3)n(C[C@@H]3CCO3)c2C)oc1C(=O)O [Compound C-19, 5-(2-((4-((S)-2-(4-chloro-2-fluorophenyl)-2-methylbenzo[d][1,3]dioxol-4-yl)piperidin-1-yl)methyl)-5-methyl-1-(((S)-oxetan-2-yl)methyl)-1H-imidazol-4-yl)-3-methylfuran-2-carboxylic acid] | 109 | 377 |
| Cc1nc(CN2CCC(c3cccc4c3O[C@@](C)(c3ccc(Cl)cc3F)O4)CC2)n(C[C@@H]2CCO2)c1-c1coc(C(=O)O)n1 [Compound C-20, 4-(2-((4-((S)-2-(4-chloro-2-fluorophenyl)-2-methylbenzo[d][1,3]dioxol-4-yl)piperidin-1-yl)methyl)-4-methyl-1-(((S)-oxetan-2-yl)methyl)-1H-imidazol-5-yl)oxazole-2-carboxylic acid] | 112 | 240 |
| Cc1nc(CN2CCC(c3cccc4c3O[C@@](C)(c3ccc(Cl)cc3F)O4)CC2)n(C[C@@H]2CCO2)c1-c1cc(C(=O)O)n(C)n1 [Compound C-21, 3-(2-((4-((S)-2-(4-chloro-2-fluorophenyl)-2-methylbenzo[d][1,3]dioxol-4-yl)piperidin-1-yl)methyl)-4-methyl-1-(((S)-oxetan-2-yl)methyl)-1H-imidazol-5-yl)-1-methyl-1H-pyrazole-5-carboxylic acid] | 117 | 836 |
